# What was measured:
# Recombinant PHD2 = target: T1, Recombinant PHD2 (Homo sapiens, UniProt Q9GZT9); experiment: In vitro PHD2 enzymatic assay (HIF peptide hydroxylation, HPLC); assay type: biochemical
# T1 construct: purchased ActiveMotif, Japan 81065
# Procedure: To identify whether TGF-β1 directly affects PHD2 enzymatic activity, we performed an in vitro PHD2 assay using synthetic HIF-1α peptide as a substrate (Fig. 2h). […] To further investigate whether Fe^2+ oxidation impairs PHD2 activity, we introduced H2O2 into the reaction to promote Fe^2+ oxidation.
# A reaction mixture (30 µL total volume) containing 300 µM HIF peptide, 1 µM recombinant PHD2, 20 mM Tris-HCl (pH 7.5), 1 mM DTT, 300 µM ascorbic acid, 5 mM KCl, 1.5 mM MgCl2, 50 µM Fe(SO4)·6H2O, and 300 µM α-ketoglutarate was incubated at 30 °C for 2 hr. The reaction was terminated by adding an equal volume (30 µL) of DMSO. Product analysis was carried out on Waters 2998 HPLC system equipped with a photodiode array detector and an XBridge™ BEH C18 column (4.6 × 250 mm, 5 µm), detecting at 280 nm. A hydroxylated HIF peptide served as a reference standard.
# HIF-1α–EGFP in A549 = experiment: pg-HIF-1α–EGFP fluorescence in transfected A549; assay type: cell-based, human; settings: A549, co-treatment with TGF-β1
# Procedure: pg-HIF-1α–EGFP was introduced via jetOPTIMUS®; GFP fluorescence was quantified 48 h post-transfection.
# Transient transfection of A549 cells with pg-HIF-1α–EGFP was performed using jetOPTIMUS® according to the manufacturer’s protocol. Following 48 hr of transfection, the medium was replaced, and cells were treated with TGF-β1 at the specified concentration and duration before further analysis. Cell imaging was performed using an EVOS™ M7000 at 10×, 20×, or 40× magnification. GFP fluorescence intensity was measured using ImageJ. The mean fluorescence within the regions of interest (ROIs) was calculated after background subtraction, and values were normalized to the control condition
# A549 [1] = experiment: Western blot of HIF-1α, fibrosis and EMT markers in A549; assay type: cell-based, human; settings: for HIF-1α and COL4A6 levels (Western blot): A549, TGF-β1 co-treatment
# A549 [2] = experiment: Scratch migration assay; assay type: cell-based, human; settings: CoCl2 or FG-4592 treatment
# [3] = tested on: BLM-induced pulmonary fibrosis; experiment: BLM-induced pulmonary fibrosis, Ashcroft scoring of lung sections; assay type: in vivo, ICR mice; settings: BLM 30 mg/kg intratracheal; ACF-2 10 mg/kg i.p. every 2 days or NIDB 60 mg/kg/day in drinking water, 2 weeks; BLM-only 6.2
# Procedure: Male ICR mice received BLM (30 mg/kg, intratracheal). […] Fixed left lung lobes were paraffin-embedded, sectioned (4 μm), and stained with H&E or MT. A blinded pathologist graded pulmonary fibrosis on the 1-8 Ashcroft scale; representative images illustrate typical lesions. Colon samples were processed by the swiss-roll method, stained with H&E, and scored for inflammation and erosion, which were combined into a composite histological score. All animal studies were approved by the Institutional Animal Care and Use Committee of Jeju National University (Approval ID: 2024-0058) and conducted in compliance with institutional guidelines. Male ICR mice (6 weeks old, average body weight 27 g) were purchased from […] (South Korea) and housed under controlled temperature (22 ± 2 °C) and humidity (0.0 ± 15.0 %) on a 12 hr light-dark cycle with free access to food and water. […] Lung tissue: Left lung lobes were fixed in 4% paraformaldehyde for 24 h, dehydrated, and embedded in paraffin. Sections of 4 μm thickness were prepared, deparaffinized with xylene, and rehydrated in a graded ethanol series. H&E staining was performed using hematoxylin and eosin solutions, respectively. The severity of fibrosis was graded according to the Ashcroft scale (1-8), as evaluated by a pathologist blindly. Representative H&E images were chosen to illustrate the most characteristic pathology. […]
# colon = experiment: Colonic histopathology in the BLM mouse study; assay type: in vivo, ICR mice; settings: BLM mice; ACF-2 10 mg/kg i.p. every 2 days or NIDB 60 mg/kg/day
# Description: Fixed left lung lobes were paraffin-embedded, sectioned (4 μm), and stained with H&E or MT. A blinded pathologist graded pulmonary fibrosis on the 1-8 Ashcroft scale; representative images illustrate typical lesions. Colon samples were processed by the swiss-roll method, stained with H&E, and scored for inflammation and erosion, which were combined into a composite histological score. All animal studies were approved by the Institutional Animal Care and Use Committee of Jeju National University (Approval ID: 2024-0058) and conducted in compliance with institutional guidelines. Male ICR mice (6 weeks old, average body weight 27 g) were purchased from […] (South Korea) and housed under controlled temperature (22 ± 2 °C) and humidity (0.0 ± 15.0 %) on a 12 hr light-dark cycle with free access to food and water. […] Colon tissue: Colons were harvested, flushed with 1xPBS, and prepared using the swiss-roll method before embedding in paraffin. Sections of 4 μm thickness were subjected to H&E staining as described above. Colonic injury was evaluated by two independent parameters: (i) inflammation score (0-3) and (ii) erosion score (0-3). A composite histological score was then calculated as the sum of inflammation and erosion scores for each sample.
# [4] = tested on: BLM-induced pulmonary fibrosis; experiment: RT-qPCR of lung tissue in BLM-treated mice; assay type: in vivo, ICR mice; settings: BLM 30 mg/kg; ACF-2 10 mg/kg i.p. every 2 days or NIDB 60 mg/kg/day
# Procedure: Total RNA (AccuPrep®) was reverse-transcribed and amplified with SYBR Green chemistry on a StepOnePlusTM system; relative expression was calculated by ΔΔCt. Male ICR mice received BLM (30 mg/kg, intratracheal). […] Total RNA was extracted from both cultured cells and mouse lung tissue using the AccuPrep® Universal RNA Extraction Kit. […] RT-qPCR was performed using iTaqTM Universal SYBR® Green Supermix on a StepOnePlusTM Real-Time PCR System. […] All animal studies were approved by the Institutional Animal Care and Use Committee of Jeju National University (Approval ID: 2024-0058) and conducted in compliance with institutional guidelines. Male ICR mice (6 weeks old, average body weight 27 g) were purchased from […] (South Korea) and housed under controlled temperature (22 ± 2 °C) and humidity (0.0 ± 15.0 %) on a 12 hr light-dark cycle with free access to food and water.
# T1 sequence (Q9GZT9 whole entry): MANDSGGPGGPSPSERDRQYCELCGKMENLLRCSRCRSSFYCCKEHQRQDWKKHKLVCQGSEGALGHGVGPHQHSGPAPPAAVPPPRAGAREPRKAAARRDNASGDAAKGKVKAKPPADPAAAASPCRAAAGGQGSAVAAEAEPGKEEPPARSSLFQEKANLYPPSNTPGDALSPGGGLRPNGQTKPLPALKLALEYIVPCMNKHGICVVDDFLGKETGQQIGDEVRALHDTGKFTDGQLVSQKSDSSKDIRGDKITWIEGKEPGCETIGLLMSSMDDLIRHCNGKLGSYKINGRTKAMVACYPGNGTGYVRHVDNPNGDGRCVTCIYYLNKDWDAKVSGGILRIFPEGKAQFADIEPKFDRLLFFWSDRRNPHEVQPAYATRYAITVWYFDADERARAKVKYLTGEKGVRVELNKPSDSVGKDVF
structure (smiles),measurement,setting,value
O.Oc1cc(O)c2c(c1)O[C@H](c1ccc(O)c(O)c1)[C@@H](O)C2 [Catechin],effect on PHD2 activity,"Recombinant PHD2; ambient air, comparable concentrations to ACF-2",failed to preserve or enhance PHD2 activity
"c1ccc2c(c1)[I+]c1ccccc1-2 [DPI, diphenyleneiodonium chloride, reference compound]",TGF-β1–induced HIF-1α–EGFP GFP fluorescence intensity,HIF-1α–EGFP in A549,substantial drop in GFP intensity
same,HIF-1α and COL4A6 levels (Western blot),A549 [1],markedly reduced HIF-1α and COL4A6 levels
Cc1nc(C(=O)NCC(=O)O)c(O)c2ccc(Oc3ccccc3)cc12 [FG-4592],"fibrosis-associated proteins (fibronectin, α-SMA, COL3A1, COL4A6)","A549 [1]; A549, ambient air, CoCl2 200 μM, FG-4592 50 μM",increased expression of fibrosis-associated proteins
same,cell migration (wound healing),A549 [2],significant increase in cell migration
OO [H2O2],effect on PHD2 activity (H2O2 added to the reaction),Recombinant PHD2; H2O2 introduced to promote Fe2+ oxidation,inhibited PHD2 activity in a dose-dependent manner
"COC(=O)c1ccc2c(c1)NC(=O)/C2=C(\Nc1ccc(N(C)C(=O)CN2CCN(C)CC2)cc1)c1ccccc1 [NIDB, nintedanib, reference compound]",Average Ashcroft score,[3],3.8
same,composite histological score of colon (inflammation + erosion),colon,significantly increased the composite histological score
same,TGF-β1 (Tgfb1) expression in lung (RT-qPCR),[4],markedly reduced
CN(C)c1cccc(-c2c3c(=O)n(-c4ccccc4Cl)[nH]c3cc(=O)n2C)c1 [Setanaxib],HIF-1α and COL4A6 levels (Western blot),A549 [1],markedly reduced HIF-1α and COL4A6 levels
COc1cc(C(C)=O)ccc1O [apocynin],HIF-1α and COL4A6 levels (Western blot),A549 [1],markedly reduced HIF-1α and COL4A6 levels

# From paper PMC12721191, “Oxidative hypoxia drives TGF-β1–induced fibrosis under normoxia” (Redox Biology, 2025)
